These results are taken from patent US20100216779A1 (GLAXOSMITHKLINE LLC, priority 2007, published 2010).

One series concerns COLO205 (colon). Put plainly: Inhibition of cell proliferation, CellTiter-Glo, COLO205. Particulars: Homo sapiens, COLO 205, 72 h. The class given is cell-based. The essentials: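 Exponentially growing COLO205 cells in medium with 10% FBS were plated below 2000 cells/well at 37 °C, 5% CO2. Untreated wells served as controls.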
For series [1], the system named is NCI-H929 (multiple myeloma). The experiment in a line: Inhibition of cell proliferation, CellTiter-Glo, NCI-H929. The note with it: Homo sapiens, 72 h. The class given is cell-based. The essentials: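 Cells were grown in medium with 10% FBS at 37° C, 5% CO2. Cell number was read as CellTiter-Glo luminescence (cellular ATP), with untreated wells as control.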
(In general: In ATP-based viability assays light output follows the ATP content of the culture.)

Series [2] addresses T1, human IGF-1R (NIH-3T3 cells over expressing human IGF-1R) (Homo sapiens, UniProt P08069).
T1 construct: expressed in transfected cells; host or cells: NIH-3T3 (mouse fibroblasts)
The experiment in a line: IGF-1R cellular autophosphorylation (DELFIA). The class given is cell-based. The note with it: IGF-1 stimulated. The essentials:
(§1)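 Autophosphorylation of IGF-1R or IR is measured in NIH-3T3 lines overexpressing each human receptor after 2 h compound pretreatment and a 15 min ligand challenge (IGF-1 30 ng/mL; insulin 3 ug/mL). Fluorescence is normalised to 100% stimulation.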

Series [3] addresses T2, IR (NIH-3T3 cells over expressing human IGF-1R or IR) (Homo sapiens, UniProt P06213).
T2 construct: expressed in transfected cells; host or cells: NIH-3T3 (mouse fibroblasts)
The experiment in a line: IR cellular autophosphorylation (DELFIA). The class given is cell-based. The note with it: NIH-3T3 cells over expressing IR, insulin stimulated. The essentials: as §1

Series [4] deals with LISN cell (mouse 3T3 fibroblasts transduced with human IGF-1R) tumors. Put plainly: In vivo efficacy, mice bearing LISN cell tumors. Particulars: for tumor growth inhibition at day 21: LISN (start approx. 362 mm^3). As for the experimental part:
E. In Vivo Efficacy—Mouse Models
The efficacy of the compounds of Examples 57 and 58 were assessed together in an in vivo efficacy experiment performed on mice bearing LISN cell (mouse 3T3 fibroblasts transduced with human IGF-1R) tumors. Fifty six female nude mice bearing subcutaneous LISN cell tumors were measured for tumor size and body weight and block randomized into seven groups of eight mice with an equal average tumor volume of approximately 200 mm3. Mice were dosed with either vehicle (20% SBE pH3.5), Example 57 or Example 58. The dosing schedules for each compound were based on previous experiments with the compounds and doses chosen to give the highest tumor growth inhibition and a dose response. Example 58 was dosed at 30, 100 and 300 mg/kg QD for 21 days while Example 57 was dosed at 30 mg/kg QD for 21 days, 15 mg/kg BID for 21 days and 30 mg/kg QDx3 days/week for 3 weeks.
The tumors on mice being treated with vehicle grew with the expected exponential growth throughout the 21 day study. […] The lower dose of 30 mg/kg of Example 58 achieved 28% tumor growth inhibition.
The efficacy of the compounds of Examples 237 and 219 were assessed together in an in vivo efficacy experiment performed on mice bearing LISN cell (mouse 3T3 fibroblasts transduced with human IGF-1R) tumors. Sixty four female nude mice bearing subcutaneous LISN cell tumors were measured for tumor size and body weight and block randomized into eight groups of eight mice with an equal average tumor volume of approximately 362 mm^3. Mice were dosed with either vehicle (20% SBE pH3.5), Example 237 or Example 219. The dosing schedules for each compound were based on previous experiments with the compounds and doses chosen to give the highest tumor growth inhibition and a dose response. Example 237 was administered at 30 and 60 mg/kg QD for 21 days and 30 mg/kg BID for 21 days while Example 219 was administered at 50 and 100 mg/kg QD for 21 days, 25 and 50 mg/kg BID for 21 days.
The tumors on mice being treated with vehicle grew with the expected exponential growth throughout the 21 day study. […] The lower dose of 30 mg/kg QD of Example 237 achieved 15% tumor growth inhibition at day 21 (note: 2 animals were euthanized prior to the last measurement). […] This recovered to 3% by the end of dosing and fully recovered after dosing was concluded. […] This recovered fully within 4 days after the completion of dosing.

The next series deals with T3, human IGF1R (hIGF1R) (Homo sapiens, UniProt P08069).
T3 construct: containing amino acid residues 957-1367 of human IGF1R; made in house; host or cells: Sf9 cells, baculovirus
The experiment in a line: IGF1R TR-FRET assay using peptide as the phosphoacceptor. The class given is biochemical. Particulars: 10 μM ATP, 0.5 nM activated enzyme. As for the experimental part:
A. IR and IGF1 R Time Resolved Fluorescence Resonance Energy Transfer (TR-FRET) Assay Using Peptide as the Phosphoacceptor
Substrate phosphorylation assays are carried out as follows:
The Source of Substrate Peptide
The biotinylated substrate peptide, (sequence-Biotin-aminohexyl-AEEEEY*[…]-NH2) SEQ. ID. 1 is purchased from QCB, Inc. (Hopkinton, Mass.). Purity is determined by HPLC. The calculated molecular mass of the peptide is 2216 dalton. Tyrosine phosphorylation by human IGF1R (hIGF1R) or human IR (hIR) occurs as indicated (Y*) in the peptide sequence described. Solid peptide sample is dissolved to approximately 1 mM in DMSO, aliquoted, and stored at −20° C. until use. True peptide concentration is determined by amino acid analysis.
The Source of Enzyme: • hIGF1R: GST-rTEV-IGF-1R (957-1367) containing amino acid residues 957-1367 of human IGF1R (as annotated by National Center for Biotechnology Information (NCBI) accession number NP_000866) is purified from a baculovirus expression system in Sf9 cells using Glutathione Sepharose 4FF column chromatography followed by Sephadex-200 size exclusion column chromatography. Enzyme purity of approximately 95% is achieved. Samples, in 25 mM Tris-HCl, 250 mM NaCl, 5% glycerol, 1 mM DTT, pH 7.5, are stored at −80° C. until use. • hIR: GST-rTEV-IR(979-1382) containing amino acid residues 979-1382 of human IR (as annotated by NCBI accession number NP_000199) is expressed and purified by the same process as hIGF1R. Enzyme purity of approximately 92% is achieved. Samples, in 25 mM Tris-HCl, 250 mM NaCl, 5% glycerol, 1 mM DTT, pH 7.5, are stored at −80° C. until use.
Activation of hIGF1R and hIR by Autophosphorylation: • hIGF1R: Activation of GST-rTEV-IGF-1R(957-1367) is achieved by a 4 minute incubation of hIGF1R (2.7 μM final) with 2 mM ATP in 50 mM HEPES, 20 mM MgCl2, 0.1 mg/mL BSA, at room temperature. Autophosphorylation is stopped by addition of EDTA (to 100 mM final). Aliquoted samples are flash frozen in liquid nitrogen and stored at −80° C. until use. • hIR: Activation of […] is achieved by a 5 minute incubation of hIR (2.7 μM final) with 2 mM ATP in 100 mM HEPES, 10 mM MgCl2, 0.1 mg/mL BSA, at room temperature. Autophosphorylation is stopped by addition of EDTA (to 100 mM final). Aliquoted samples are flash frozen in liquid nitrogen and stored at −80° C. until use. • Kinase Assay of Purified hIGF1R or hIR:
Assays are performed in 384-well (Greiner, Catalog No. 784076) microtiter plates. Reaction buffer (50 mM HEPES buffer, pH 7.5; 10 mM MgCl2; 3 mM DTT; 1 mM CHAPS; 0.1 mg/mL BSA) for peptide phosphorylation (10 μl volume) contained, in final concentrations, 500 nM biotinylated peptide substrate; 10 μM ATP; and purified, activated hIGF1R or hIR (0.5 nM). Some compounds were initially assayed against IGF1R in buffer without DTT or CHAPS. […] Compounds, titrated in DMSO, are evaluated at eleven concentrations ranging from 50 μM to 0.2 nM. […] No effect on activity relative to controls without DMSO is observed for hIGF1R or IR at these DMSO amounts. Reactions are incubated for 1 hour at room temperature and are stopped by a 5 μl addition of EDTA (to 33 mM). A further addition of 5 μl detection reagents (for final 7 nM Streptavidin-APC (PerkinElmer #CR130-150), 1 nM Europium-labeled anti-phosphotyrosine monoclonal antibody (PerkinElmer #AD0067), added in reaction buffer (without DTT), is required for signal generation. After 30 minutes, signal is read on PerkinElmer Viewlux microplate imager or Wallac Victor fluorometer.
Data were fitted to the curve described by:
y=((Vmax*x)/(K+x)) where • Vmax is the upper asymptote and • K is the IC50.
The results for each tested compound were recorded as pIC50 calculated as follows: […]

Each structure is given as a SMILES string.

T1 sequence (P08069 31-1367): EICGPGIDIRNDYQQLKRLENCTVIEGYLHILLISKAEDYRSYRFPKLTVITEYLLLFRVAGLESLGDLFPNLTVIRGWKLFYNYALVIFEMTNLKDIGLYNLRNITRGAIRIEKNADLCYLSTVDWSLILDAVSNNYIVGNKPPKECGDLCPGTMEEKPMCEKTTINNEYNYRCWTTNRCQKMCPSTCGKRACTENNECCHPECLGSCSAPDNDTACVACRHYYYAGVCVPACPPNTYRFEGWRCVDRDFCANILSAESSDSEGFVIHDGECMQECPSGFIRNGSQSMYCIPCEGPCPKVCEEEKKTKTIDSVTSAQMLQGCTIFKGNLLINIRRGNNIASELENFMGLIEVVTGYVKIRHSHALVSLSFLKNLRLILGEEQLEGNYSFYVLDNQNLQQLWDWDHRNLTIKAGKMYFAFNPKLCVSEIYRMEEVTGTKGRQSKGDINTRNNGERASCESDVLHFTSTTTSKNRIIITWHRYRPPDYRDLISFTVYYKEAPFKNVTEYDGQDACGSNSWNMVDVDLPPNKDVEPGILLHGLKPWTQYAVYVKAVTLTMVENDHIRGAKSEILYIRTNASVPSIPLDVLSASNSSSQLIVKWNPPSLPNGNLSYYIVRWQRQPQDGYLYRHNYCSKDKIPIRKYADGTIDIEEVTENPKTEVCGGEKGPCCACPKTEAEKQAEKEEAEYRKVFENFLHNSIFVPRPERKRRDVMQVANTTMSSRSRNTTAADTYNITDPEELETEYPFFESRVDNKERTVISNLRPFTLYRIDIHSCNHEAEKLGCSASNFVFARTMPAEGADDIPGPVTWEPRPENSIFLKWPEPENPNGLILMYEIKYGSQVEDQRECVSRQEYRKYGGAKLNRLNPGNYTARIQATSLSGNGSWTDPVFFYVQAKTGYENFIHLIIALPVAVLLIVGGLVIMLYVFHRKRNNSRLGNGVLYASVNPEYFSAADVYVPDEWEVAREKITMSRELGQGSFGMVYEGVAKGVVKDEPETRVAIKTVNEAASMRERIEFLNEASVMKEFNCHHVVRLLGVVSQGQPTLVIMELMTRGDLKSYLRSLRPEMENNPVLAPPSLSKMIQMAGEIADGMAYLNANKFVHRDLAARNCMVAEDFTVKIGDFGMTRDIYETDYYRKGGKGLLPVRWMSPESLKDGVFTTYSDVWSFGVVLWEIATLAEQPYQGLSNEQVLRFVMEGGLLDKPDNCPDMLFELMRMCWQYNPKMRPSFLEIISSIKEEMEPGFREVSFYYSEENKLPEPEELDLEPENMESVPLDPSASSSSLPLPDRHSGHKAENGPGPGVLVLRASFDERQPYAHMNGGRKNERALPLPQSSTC
T2 sequence (P06213 28-1382): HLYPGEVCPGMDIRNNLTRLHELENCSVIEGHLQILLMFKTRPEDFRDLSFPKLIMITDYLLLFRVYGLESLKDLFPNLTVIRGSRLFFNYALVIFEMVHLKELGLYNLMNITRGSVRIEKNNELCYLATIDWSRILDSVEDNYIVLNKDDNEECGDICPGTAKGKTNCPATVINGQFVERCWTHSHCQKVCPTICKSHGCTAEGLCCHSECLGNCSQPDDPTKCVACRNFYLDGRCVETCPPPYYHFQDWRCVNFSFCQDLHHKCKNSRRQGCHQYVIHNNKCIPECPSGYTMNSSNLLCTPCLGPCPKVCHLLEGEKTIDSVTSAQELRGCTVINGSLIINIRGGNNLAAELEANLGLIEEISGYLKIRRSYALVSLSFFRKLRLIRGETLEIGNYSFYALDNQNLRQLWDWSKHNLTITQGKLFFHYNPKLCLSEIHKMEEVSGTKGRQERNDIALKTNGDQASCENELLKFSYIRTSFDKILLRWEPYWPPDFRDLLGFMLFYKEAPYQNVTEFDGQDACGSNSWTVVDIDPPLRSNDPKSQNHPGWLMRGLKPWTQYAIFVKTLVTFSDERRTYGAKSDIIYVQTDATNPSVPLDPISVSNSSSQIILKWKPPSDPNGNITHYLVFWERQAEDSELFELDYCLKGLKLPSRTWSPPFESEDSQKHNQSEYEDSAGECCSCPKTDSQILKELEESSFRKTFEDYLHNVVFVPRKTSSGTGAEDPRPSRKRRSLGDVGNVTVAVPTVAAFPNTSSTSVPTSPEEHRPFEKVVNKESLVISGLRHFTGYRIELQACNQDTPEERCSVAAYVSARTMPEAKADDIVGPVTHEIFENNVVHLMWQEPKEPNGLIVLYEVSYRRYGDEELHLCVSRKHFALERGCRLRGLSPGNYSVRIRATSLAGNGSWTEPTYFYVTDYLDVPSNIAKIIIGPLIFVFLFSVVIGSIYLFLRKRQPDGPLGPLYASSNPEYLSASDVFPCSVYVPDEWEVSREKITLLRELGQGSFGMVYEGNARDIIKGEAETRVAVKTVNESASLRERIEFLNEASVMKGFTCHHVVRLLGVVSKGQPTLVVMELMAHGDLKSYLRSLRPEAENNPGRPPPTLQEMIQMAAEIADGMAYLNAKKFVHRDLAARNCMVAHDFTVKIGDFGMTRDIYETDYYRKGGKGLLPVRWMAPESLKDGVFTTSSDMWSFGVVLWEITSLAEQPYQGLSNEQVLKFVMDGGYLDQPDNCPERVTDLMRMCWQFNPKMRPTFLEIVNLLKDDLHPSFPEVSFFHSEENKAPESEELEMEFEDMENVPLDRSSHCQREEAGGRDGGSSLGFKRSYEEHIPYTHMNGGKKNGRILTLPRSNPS
T3 sequence (P08069 957-1367): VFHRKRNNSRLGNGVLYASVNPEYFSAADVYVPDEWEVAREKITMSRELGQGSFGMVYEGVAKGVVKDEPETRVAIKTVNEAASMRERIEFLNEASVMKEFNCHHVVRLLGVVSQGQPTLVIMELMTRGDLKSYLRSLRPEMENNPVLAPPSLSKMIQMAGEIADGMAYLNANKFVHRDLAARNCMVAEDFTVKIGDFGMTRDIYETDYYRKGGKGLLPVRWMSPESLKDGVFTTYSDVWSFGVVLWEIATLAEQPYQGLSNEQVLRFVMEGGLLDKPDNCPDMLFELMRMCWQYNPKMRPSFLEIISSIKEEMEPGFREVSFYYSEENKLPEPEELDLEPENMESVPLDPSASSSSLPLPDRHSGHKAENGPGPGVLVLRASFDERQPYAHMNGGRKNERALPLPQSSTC

As usually defined, the IC50 is the point on the concentration scale where inhibition reaches its midpoint. `COc1cc(N2CCC(N3CCN(S(C)(=O)=O)CC3)CC2)ccc1Nc1nccc(-c2c(-c3cccc(C(=O)Nc4c(F)cccc4F)c3)nc3ccccn23)n1` [Example 58, N-(2,6-difluorophenyl)-3-(3-{2-[(2-(methyloxy)-4-{4-[4-(methylsulfonyl)-1-piperazinyl]-1-piperidinyl}phenyl)amino]-4-pyrimidinyl}imidazo[1,2-a]pyridin-2-yl)benzamide]: the IC50 with COLO205 (colon) is 250 to 1000 nM; in series [1], less than 250 nM; in series [2] it was less than 100 nM; in series [3], less than 100 nM. For the same molecule, the tumor growth inhibition is recorded as 28% in series [4] (LISN, 30 mg/kg QD for 21 days); 46% in series [4] (LISN, 100 mg/kg QD for 21 days); 45% in series [4] (LISN, 300 mg/kg QD for 21 days). Further, the “effect on body weight loss” value in series [4] (LISN, 30, 100 and 300 mg/kg QD, throughout the study) is reported as “no effect”.

On to `CCOc1cc(N2CCC(CCS(C)(=O)=O)CC2)c(C)cc1Nc1nccc(-c2c(-c3ccc(OCC)c(C(=O)Nc4c(F)cccc4F)c3)nc3ccccn23)n1` [Example 217, N-(2,6-difluorophenyl)-2-(ethyloxy)-5-(3-{2-[(2-(ethyloxy)-5-methyl-4-{4-[2-(methylsulfonyl)ethyl]-1-piperidinyl}phenyl)amino]-4-pyrimidinyl}imidazo[1,2-a]pyridin-2-yl)benzamide], for which, at human IGF1R (hIGF1R), the “IGF-1R pIC50” value is recorded as “++ (at least one average pIC50 measurement greater than 6 against the kinase tested but no average measurement greater than pIC50 of 7)”. In addition, the IC50 in the series on COLO205 (colon) was less than 250 nM; in series [1], less than 250 nM; in series [2], less than 100 nM; in series [3] it was less than 100 nM.

Turning to `CCOc1cc(N2CCC(CCS(C)(=O)=O)CC2)c(C)cc1Nc1nccc(-c2c(-c3ccc(OC)c(C(=O)Nc4c(F)cccc4F)c3)nc3ccccn23)n1` [Example 219, N-(2,6-difluorophenyl)-5-(3-{2-[(2-(ethyloxy)-5-methyl-4-{4-[2-(methylsulfonyl)ethyl]-1-piperidinyl}phenyl)amino]-4-pyrimidinyl}imidazo[1,2-a]pyridin-2-yl)-2-(methyloxy)benzamide], the IC50 in the series with COLO205 (colon) was less than 250 nM; in series [1] it was less than 250 nM; in series [2] it was less than 100 nM; in series [3] it was less than 100 nM. In addition, the “tumor growth inhibition at day 21” value in series [4] (25 mg/kg BID for 21 days) was 16%; in series [4] (50 mg/kg BID for 21 days), 76%; in series [4] (50 mg/kg QD for 21 days), 29%; in series [4] (100 mg/kg QD for 21 days) it was 44%. Further, the “time to full recovery of body weight after the completion of dosing” value in series [4] (LISN, 25 mg/kg BID and 50 mg/kg BID) is on record as not above 4 days. In addition, the body weight loss in series [4] (LISN, 25 mg/kg BID for 21 days) is 4%; in series [4] (LISN, 50 mg/kg BID for 21 days) it was 6%; in series [4] (LISN, 100 mg/kg and 50 mg/kg QD) it was “no body weight loss”.

With `COc1cc(N2CCC(CCS(C)(=O)=O)CC2)c(C)cc1Nc1nccc(-c2c(-c3ccc(OC(C)C)c(C(=O)Nc4c(F)cccc4F)c3)nc3ccccn23)n1` [Example 214, N-(2,6-difluorophenyl)-2-[(1-methylethyl)oxy]-5-(3-{2-[(5-methyl-2-(methyloxy)-4-{4-[2-(methylsulfonyl)ethyl]-1-piperidinyl}phenyl)amino]-4-pyrimidinyl}imidazo[1,2-a]pyridin-2-yl)benzamide], at human IGF1R (hIGF1R), the “IGF-1R pIC50” value is given as “++ (at least one average pIC50 measurement greater than 6 against the kinase tested but no average measurement greater than pIC50 of 7)”. Further, the IC50 in the series on COLO205 (colon) was less than 250 nM; in series [1], less than 250 nM; in series [2], less than 100 nM; in series [3], less than 100 nM.
